Data set [1] deals with HBV replication in HepAD38 cells. Put plainly: Anti-HBV activity in HepAD38 cells, extracellular HBV DNA by QPCR. It is filed as cell-based, HBV (genotype D, serotype ayw). Particulars: Hepatitis B virus, HePAD38, 168 h, read-out: Anti-HBV EC50, HepAD38 cells, extracellular HBV DNA by QPCR, 7 days of incubation. The gist of the method:
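Seven-day compound exposure (30 μM down to 10 nM, half-log steps) after tetracycline withdrawal induced HBV replication in HepAD38 cells. Extracellular viral DNA measured by QPCR (copies/mL via standard curve), normalised to DMSO wells; EC50 from 4-parameter non-linear regression.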

Data set [2] in a line: In vitro cytotoxicity, MTT cell viability assay in HepG2 cells. It is filed as cell-based. The note with it: human, Cytotoxicity CC50. An outline of the steps:
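Using MTT conversion as the viability measure, HepG2 cells were incubated with compounds for 7 days (30 μM to 1.0 nM). Absorbance at 492 nm was normalized to vehicle and fitted to give CC50.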
On the technique in general: Formazan colour is commonly taken as a measure of viable cells.

Each structure is given as a SMILES string. Some results are limits rather than exact numbers.

Broadly, the EC50 is the concentration at which the effect is half-maximal. For orientation: CC50 means the concentration that lowers cell viability or growth by half. Read a low CC50 as harm at low concentration.

In the case of `O=C(Nc1cc(F)c(F)c(F)c1)c1ccc(F)c(C(F)(F)C(=O)N2CCC(O)(CO)CC2)c1` [Example 174, 3-(1,1-difluoro-2-(4-hydroxy-4-(hydroxymethyl)piperidin-1-yl)-2-oxoethyl)-4-fluoro-N-(3,4,5-trifluorophenyl)benzamide], the concentration for a half-maximal effect (EC50) in data set [1] was less than 5 µM. In data set [2], this compound yielded a CC50 at 7 days of 5 to 30 µM.

As for `Cc1cc(NC(=O)c2cccc(C(F)(F)C(=O)N3C4CC[C@@H]3C[C@@H](O)C4)c2F)ccc1F` [Example 256, 3-(1,1-difluoro-2-((1R,3s,5S)-3-hydroxy-8-azabicyclo[3.2.1]octan-8-yl)-2-oxoethyl)-2-fluoro-N-(4-fluoro-3-methylphenyl)benzamide], in data set [1], the EC50 was less than 5 µM. The CC50 at 7 days in data set [2] is 5 to 30 µM.

In the case of `O=C(Nc1cc(F)c(F)c(F)c1)c1ccc(F)c(C(F)(F)C(=O)N2[C@@H]3CC[C@H]2C[C@@H](O)C3)c1` [Example 173], in data set [1], the EC50 was less than 5 µM. The compound also displayed a CC50 at 7 days in data set [2] of 5 to 30 µM.

In the case of `O=C(Nc1ccc(Cl)cc1F)c1ccc(Cl)c(C(F)(F)C(=O)N2CCC(O)CC2)c1` [Example 37, 4-chloro-N-(4-chloro-2-fluorophenyl)-3-(1,1-difluoro-2-(4-hydroxypiperidin-1-yl)-2-oxoethyl)benzamide], the EC50 in data set [1] is more than 30 µM. Also, the 50% cytotoxic concentration (CC50) at 7 days in data set [2] was more than 30 µM.

In the case of `CCN(CCCO)C(=O)C(F)(F)c1cc(C(=O)Nc2ccc(F)c(F)c2)ccc1F` [Example 46, N-(3,4-difluorophenyl)-3-(2-(ethyl(3-hydroxypropyl)amino)-1,1-difluoro-2-oxoethyl)-4-fluorobenzamide], the EC50 in data set [1] is 5 to 30 µM. Moreover, the half-maximal cytotoxic concentration (CC50) at 7 days in data set [2] is more than 30 µM.

Take `Cc1cc(NC(=O)c2ccc(F)c(C(F)(F)C(=O)N3CCC(O)C(F)(F)C3)c2)cc(F)n1` (stereo not shown) [Example 251, 3-(2-(3,3-difluoro-4-hydroxypiperidin-1-yl)-1,1-difluoro-2-oxoethyl)-4-fluoro-N-(2-fluoro-6-methylpyridin-4-yl)benzamide]: in data set [1], the EC50 fell in the range of 5 to 30 µM. Also, the half-maximal cytotoxic concentration (CC50) at 7 days in data set [2] fell in the range of 5 to 30 µM.

Consider `Cn1cc(NC(=O)c2ccc(F)c(C(F)(F)C(=O)N3[C@@H]4CC[C@H]3C[C@H](O)C4)c2)cn1` [Example 181, 3-(1,1-difluoro-2-((1R,3s,5S)-3-hydroxy-8-azabicyclo[3.2.1]octan-8-yl)-2-oxoethyl)-4-fluoro-N-(1-methyl-1H-pyrazol-4-yl)benzamide], for which the EC50 in data set [1] lay in the range of 5 to 30 µM. The same compound registered a CC50 at 7 days in data set [2] of more than 30 µM.

Take `O=C(Nc1ccc(F)c(F)c1)c1ccc(F)c(C(F)(F)C(=O)NCc2ccncc2)c1` [Example 51, 3-(1,1-difluoro-2-oxo-2-((pyridin-4-ylmethyl)amino)ethyl)-N-(3,4-difluorophenyl)-4-fluorobenzamide]: the half-maximal effective concentration (EC50) in data set [1] was less than 5 µM. In addition, the CC50 at 7 days in data set [2] was more than 30 µM.

As for `Cc1cc(NC(=O)c2ccc(F)c(C(F)(F)C(=O)N3CCC(O)CC3)c2)cc(F)n1` [Example 160, 3-(1,1-difluoro-2-(4-hydroxypiperidin-1-yl)-2-oxoethyl)-4-fluoro-N-(2-fluoro-6-methylpyridin-4-yl)benzamide], the half-maximal effective concentration (EC50) in data set [1] fell in the range of 5 to 30 µM. Also, the cytotoxic concentration (CC50) at 7 days in data set [2] is 5 to 30 µM.

With `Cc1cc(NC(=O)c2ccnc(C(F)(F)C(=O)N3CCC(O)CC3)c2)ccc1F` [Example 243, 2-(1,1-difluoro-2-(4-hydroxypiperidin-1-yl)-2-oxoethyl)-N-(4-fluoro-3-methylphenyl)isonicotinamide], in data set [1], the EC50 was in the range of 5 to 30 µM. In addition, in data set [2], the 50% cytotoxic concentration (CC50) at 7 days was more than 30 µM.

`CC(C)n1cc(NC(=O)c2ccc(F)c(C(F)(F)C(=O)N3[C@@H]4CC[C@H]3C[C@@H](O)C4)c2)cn1` [Example 184, 3-(1,1-difluoro-2-((1R,3r,5S)-3-hydroxy-8-azabicyclo[3.2.1]octan-8-yl)-2-oxoethyl)-4-fluoro-N-(1-isopropyl-1H-pyrazol-4-yl)benzamide]: in data set [1], the EC50 was in the range of 5 to 30 µM. For the same compound, the CC50 at 7 days in data set [2] was more than 30 µM.

For `Cc1cc(NC(=O)c2ccc(C(F)(F)C(=O)N3CCC(O)CC3)s2)ccc1F` [Example 63, 5-(1,1-difluoro-2-(4-hydroxypiperidin-1-yl)-2-oxoethyl)-N-(4-fluoro-3-methylphenyl)thiophene-2-carboxamide], the 50% effective concentration (EC50) in data set [1] is more than 30 µM. The half-maximal cytotoxic concentration (CC50) at 7 days in data set [2] is 5 to 30 µM.

With `Cc1cc(NC(=O)c2ccc(F)c(C(F)(F)C(=O)N3CCC(NC(=O)OC(C)(C)C)CC3)c2)ccc1F` [Example 229, tert-butyl (1-(2,2-difluoro-2-(2-fluoro-5-((4-fluoro-3-methylphenyl)carbamoyl)phenyl)acetyl)piperidin-4-yl)carbamate], the EC50 in data set [1] was less than 5 µM. The compound further registered a 50% cytotoxic concentration (CC50) at 7 days in data set [2] of 5 to 30 µM.

On to `CC(C)(CCO)NC(=O)C(F)(F)c1cc(C(=O)Nc2ccc(F)c(F)c2)ccc1F` [Example 45, 3-(1,1-difluoro-2-((4-hydroxy-2-methylbutan-2-yl)amino)-2-oxoethyl)-N-(3,4-difluorophenyl)-4-fluorobenzamide], for which the concentration for a half-maximal effect (EC50) in data set [1] was less than 5 µM. The compound also came in with a cytotoxic concentration (CC50) at 7 days in data set [2] of 5 to 30 µM.

For `Cc1cc(NC(=O)c2ccc(F)c(C(F)(F)C(=O)N3[C@@H]4CCC[C@H]3C[C@H](O)C4)c2)ccc1F` [Example 217, 3-(1,1-difluoro-2-((1R,3s,5S)-3-hydroxy-9-azabicyclo[3.3.1]nonan-9-yl)-2-oxoethyl)-4-fluoro-N-(4-fluoro-3-methylphenyl)benzamide], in data set [1], the half-maximal effective concentration (EC50) was less than 5 µM. The compound further displayed a CC50 at 7 days in data set [2] of 5 to 30 µM.

As for `CC(C)(CO)NC(=O)C(F)(F)c1cc(C(=O)Nc2ccc(F)c(F)c2)ccc1F` [Example 24, 3-(1,1-difluoro-2-((1-hydroxy-2-methylpropan-2-yl)amino)-2-oxoethyl)-N-(3,4-difluorophenyl)-4-fluorobenzamide], in data set [1], the EC50 was 5 to 30 µM. For the same compound, the CC50 at 7 days in data set [2] was in the range of 5 to 30 µM.

As for `Cc1cc(NC(=O)c2ccc(F)c(C(F)(F)C(=O)NC34CC5CC(CC3C5)C4)c2)ccc1F` [Example 271, 3-(1,1-difluoro-2-(((2R,3as,5S,6as)-hexahydro-2,5-methanopentalen-3a(1H)-yl)amino)-2-oxoethyl)-4-fluoro-N-(4-fluoro-3-methylphenyl)benzamide], the concentration for a half-maximal effect (EC50) in data set [1] lay in the range of 5 to 30 µM. In data set [2], this compound returned a CC50 at 7 days of 5 to 30 µM.

`CC(=O)N[C@@H]1CC2CC[C@H](C1)N2C(=O)C(F)(F)c1cc(C(=O)Nc2ccc(F)c(C)c2)ccc1F` [Example 263, 3-(2-((1R,3r,5S)-3-acetamido-8-azabicyclo[3.2.1]octan-8-yl)-1,1-difluoro-2-oxoethyl)-4-fluoro-N-(4-fluoro-3-methylphenyl)benzamide]: the EC50 in data set [1] is less than 5 µM. Further, the cytotoxic concentration (CC50) at 7 days in data set [2] fell in the range of 5 to 30 µM.

With `COC(=O)N1C[C@H]2COC[C@@H](C1)N2C(=O)C(F)(F)c1cc(C(=O)Nc2ccc(F)c(C)c2)ccc1F` [Example 239, methyl (1R,5S)-9-(2,2-difluoro-2-(2-fluoro-5-((4-fluoro-3-methylphenyl)carbamoyl)phenyl)acetyl)-3-oxa-7,9-diazabicyclo[3.3.1]nonane-7-carboxylate], in data set [1], the 50% effective concentration (EC50) was less than 5 µM. The CC50 at 7 days in data set [2] is 5 to 30 µM.

Regarding `Cc1cc(NC(=O)c2cc(C(F)(F)C(=O)N3[C@@H]4CC[C@H]3C[C@H](O)C4)ccc2F)ccc1F` [Example 220, 5-(1,1-difluoro-2-((1R,3s,5S)-3-hydroxy-8-azabicyclo[3.2.1]octan-8-yl)-2-oxoethyl)-2-fluoro-N-(4-fluoro-3-methylphenyl)benzamide], the half-maximal effective concentration (EC50) in data set [1] was less than 5 µM. The same compound displayed a CC50 at 7 days in data set [2] of 5 to 30 µM.

In the case of `CC(=O)NC1CCN(C(=O)C(F)(F)c2nc(C(=O)Nc3ccc(F)c(C)c3)ccc2F)CC1(C)C` (stereo not shown) [Example 305, 6-(2-(4-acetamido-3,3-dimethylpiperidin-1-yl)-1,1-difluoro-2-oxoethyl)-5-fluoro-N-(4-fluoro-3-methylphenyl)picolinamide], in data set [1], the EC50 was less than 5 µM. For the same compound, the CC50 at 7 days in data set [2] lay in the range of 5 to 30 µM.

With `Cc1cc(NC(=O)c2ccc(F)c(C(F)(F)C(=O)N3CCc4[nH]nnc4C3)c2)ccc1F` [Example 270, 3-(1,1-difluoro-2-oxo-2-(1,4,6,7-tetrahydro-5H-[1,2,3]-triazolo[4,5-c]pyridin-5-yl)ethyl)-4-fluoro-N-(4-fluoro-3-methylphenyl)benzamide], in data set [1], the concentration giving a half-maximal response (EC50) was less than 5 µM. Further, the cytotoxic concentration (CC50) at 7 days in data set [2] was in the range of 5 to 30 µM.

For `Cc1cc(NC(=O)c2ccc(F)c(C(F)(F)C(=O)N3CCC(C(=O)O)CC3)c2)ccc1F` [Example 118, 1-(2,2-difluoro-2-(2-fluoro-5-((4-fluoro-3-methylphenyl)carbamoyl)phenyl)acetyl)piperidine-4-carboxylic acid], the concentration for a half-maximal effect (EC50) in data set [1] was less than 5 µM. Also, the half-maximal cytotoxic concentration (CC50) at 7 days in data set [2] is more than 30 µM.

Take `O=C(Nc1ccc(F)c(F)c1)c1ccc(F)c(C(F)(F)C(=O)N2CCCC(CO)C2)c1` (stereo not shown) [Example 49, 3-(1,1-difluoro-2-(3-(hydroxymethyl)piperidin-1-yl)-2-oxoethyl)-N-(3,4-difluorophenyl)-4-fluorobenzamide]: the 50% effective concentration (EC50) in data set [1] was less than 5 µM. Further, the half-maximal cytotoxic concentration (CC50) at 7 days in data set [2] is more than 30 µM.

Take `N#Cc1cc(NC(=O)c2ccc(F)c(C(F)(F)C(=O)N3CCC(O)(CO)CC3)c2)ccc1F` [Example 194, N-(3-cyano-4-fluorophenyl)-3-(1,1-difluoro-2-(4-hydroxy-4-(hydroxymethyl)piperidin-1-yl)-2-oxoethyl)-4-fluorobenzamide]: the EC50 in data set [1] was less than 5 µM. Further, in data set [2], the CC50 at 7 days was 5 to 30 µM.

In the case of `CC(=O)Nc1nc2c(s1)CN(C(=O)C(F)(F)c1cc(C(=O)Nc3ccc(F)c(C)c3)ccc1F)CC2` [Example 288, 3-(2-(2-acetamido-6,7-dihydrothiazolo[5,4-c]pyridin-5(4H)-yl)-1,1-difluoro-2-oxoethyl)-4-fluoro-N-(4-fluoro-3-methylphenyl)benzamide], the half-maximal effective concentration (EC50) in data set [1] is less than 5 µM. In addition, the CC50 at 7 days in data set [2] lay within 5 to 30 µM.

The values above are taken from patent US11247965B2 (VenatoRx Pharmaceuticals, Inc., priority 2017, dated 2022).
